Data from patent publication US6613798B1, “Small organic molecule regulators of cell proliferation” (Curis, Inc., priority 2000, dated 2003).
Entries after “also recorded” stand apart in the source; their conditions may differ.

Columns and labels:
Ptc-1 = test: Quantitative RT-PCR (TaqMan) measurement of Ptc-1 transcript in C3H 10T1/2 cells; format: cell-based, Murine; conditions: compound concentration of 8 μM
Experimental: (§1) The compounds of FIGS. 32 and 33 were tested for their ability to activate transcription of two well-studied targets of the Hedgehog pathway: the transcription factor Gli-1, and the putative Hedgehog receptor component Ptc-1.
(§2) Murine C3H 10T1/2 cells were seeded at approximately 200,000 cells per well in a 24-well plate in complete medium (10% FBS). After 24 hr, medium was removed and replaced with “starvation” medium (0.5% FBS) containing dilutions of compound or Hh protein. After 16-18 hr, total RNA was prepared using TriZol (Life Technologies, inc.).
(§3) One microgram aliquots of total RNA were used to prepare random hexamer-primed cDNA with […] Reverse transcriptase (Life Technologies, Inc.).
(§4) To measure the relative levels of Gli-1 and Ptc-1 transcripts, TaqMan assays (PE Biosystems) were performed with an ABI Prism 7700 Sequence Detection System. As an internal control, GAPDH transcript levels were simultaneously measured in each reaction. Data were analyzed using Sequence Detector v1.6.3 (Perkin Elmer).

[1] = tested on: cerebellar neuron precursors; test: Cerebellar neuron precursor proliferation (3H-thymidine incorporation); format: cell-based, rat; conditions: in the absence of Hh protein treatment
Experimental: In order to test the efficacy of Hedgehog signaling agonists, the ability of the agonists to stimulate the proliferation of cerebellar neuron precursors was determined. Cerebellar granule neuron precursors are known to respond to Hh protein by proliferating. To test the agonists, cerebellar neurons were dissected out of postnatal (one week) rat brains, and placed into primary cell culture. Treatment agents were added once, on the first day of culture (0 DIV). Cells were left in culture until 2 DIV, when 3H-thymidine was added for 5 hours; the amount of incorporation by the cells of this 3H-thymidine provides a measure of the level of proliferation of the cells. Cells were then lysed, and the incorporation of 3H-thymidine was determined. The positive control was Hh protein, at 1.0 μg/ml final concentration. Hh protein alone caused approximately a 20-fold increase in 3H-thymidine incorporation, consistent with the known ability of Shh to stimulate proliferation of these cells. Non-Hh-protein-stimulated cells, including cells treated with control vehicle (DMSO), had very low levels of proliferation. […] At 5.0 μM, the p-cyanophenyl compound B caused 10.2-fold induction of 3H-thymidine incorporation. […] At 1.0, 0.3, or 0.1 μM, D caused 16-, 17-, or 13-fold induction, respectively, of 3H thymidine incorporation into the cells.

[2] = tested on: ptc-1 (d11) lacZ kidney explants; test: Kidney branching assay (ptc-1 lacZ kidney explants); format: cell-based, mouse; conditions: 5 μM, 48 hrs culture
Experimental: (§5) E13.5 old ptc-1 (d11) lacZ lungs were harvested and transgenic embryos identified by lacZ detection using tails. Explants were assembled on 1 μm polycarbonate filters (Costar) placed on top of plastic grids (histology embedding chamber) and placed in standard 12-well tissue culture plates filled with kidney explant culture medium (DMEM based, additives optimized for the culture of mouse lungs) for 48 hrs, fixed in lacZ fixative, rinsed and stained for lacZ O/N at 37° C.
Results are depicted in FIG. 45. In the control panel on the left, LacZ expression can be observed in the mesenchyme immediately adjacent to proximalmost ureteric epitheilium, a pattern reflective of endogenous patched expression.

ptc-1 (d11) lacZ lungs = test: Lung branching assay (ptc-1 lacZ lung explants); format: cell-based, mouse; conditions: 5 μM, 48 hrs culture
Experimental: as §5, with “E 12.5” for “E13.5”, “lung” for “kidney”
Results are depicted in FIG. 44. In the control panel on the left, LacZ expression can be observed in the mesenchyme immediately adjacent to distal branching tips, a pattern reflective of endogenous patched expression.

[3] = tested on: patched (ptc-lacZ β-galactosidase reporter); test: Reporter mice assay (ptc-lacZ mice, X-gal staining of tissues); format: in vivo, mouse
Experimental: Mice with a β-galactosidase transgene (ptc-lacZ mice) under the regulatory control of the patched locus expresss the β-galactosidase protein in the same cells where the endogenous mouse patched gene is expressed. The β-galactosidase protein can thus be used as a faithful reporter of the expression of the endogenous patched gene.
Ptc-lacZ mice were divided into four treatment groups and were treated with the following compounds or combinations of compounds for four days, beginning on the first day after birth (dipal-Shh=dipalmitoylated Sonic hedgehog):
The vehicle for the agonist was 10% DMSO in PBS (pH 7.2). The agonist was injected from a 4.67 mM stock dissolved in the vehicle solution.
18 hours following the last injections, the mice were sacrificed and the following tissues were collected: skull, kidney, lung, scapula, skin and heart. All tissues were fixed in 0.2% glutaraldehyde, 5 mM EDTA (pH 8.0), 20 mM MgCl2, 100 mM Na2HPO4 for 30 minutes before staining in 1 mg/ml X-gal, 12.5 mM potassium ferrocyanide, 12.5 mM potassium ferricyanide, 2 mM MgCl2, 0.01% deoxycholate, 0.02% NP-40, and 100 mM Na2HPO4 for 30 hours. Tissues were judged for relative intensity and photographed.
FIG. 42: Ptc-lacZ mice were divided into two treatment groups and were treated with the following compounds for three days, beginning on the first day after birth:
The vehicle for the agonist was 10% DMSO in PBS (pH 7.2). The agonist was injected from a 1.0 mM stock dissolved in the vehicle solution.
Eighteen hours following the last injections, the mice were sacrificed and the forelimbs were collected and processed as described above.
In a third experiment, Ptc-lacZ mice were divided into five treatment groups and were treated with the following compounds for four days, beginning on the first day after birth:
The vehicle for the agonist was 10% DMSO in PBS (pH 7.2). The agonist was injected from stocks of 0.3, 0.1 and 0.03 mM dissolved in the vehicle solution.
Eighteen hours following the last injections, the mice were sacrificed and the forelimbs were collected and processed as described above. Results of this experiment are depicted in FIG. 43, in which the vehicle control is not shown.

Gli-1 = test: Quantitative RT-PCR (TaqMan) measurement of Gli-1 transcript in C3H 10T1/2 cells; format: cell-based, Murine; conditions: compound concentration of 8 μM
Experimental: as §1, §2, §3, §4

[4] = tested on: human embryonic palatal mesenchyme (HEPM) cells with a Gli-Luc construct; test: Gli-Luc reporter assay in human reporter cells; format: cell-based
Excerpt: FIGS. 47A and B compare the activity of subject compounds O and R in mouse reporter cells (TM3 cells with a Gli-Luc reporter construct, as described above) and in human reporter cells (human embryonic palatal mesenchyme (HEPM) cells with a Gli-Luc construct).

ptc-lacZ skin punches = test: Skin explants from ptc-lacZ pups (X-Gal stain); format: cell-based, mouse; conditions: agonist and a low dose of Hh protein, cultured 6 days
Experimental: Skin from ptc-lacZ E17.5 pups was excised with a 2 mm skin punch. Those skin punches were then cultured for 6 days in control media, or media including either agonist B or D or Hh protein, or media including both an agonist and Hh protein. The explants were then stained with X-Gal stain.

COc1ccc(CN(C(=O)c2sc3ccccc3c2Cl)C2CCC(N)CC2)cc1-c1ccc(C#N)cc1 (centres unmarked) [B]
induction of Ptc-1 relative to that obtained with the optimal concentration of Hh protein (Ptc-1): approximately 60%
stimulation of 3H-thymidine incorporation [1]: significantly stimulate 3H-thymidine incorporation
LacZ reporter gene expression in kidney explants [2]: significantly increased reporter gene expression and expansion of the expression domain of the transgene
LacZ reporter gene expression in lung explants (ptc-1 (d11) lacZ lungs): significantly increased reporter gene expression and expansion of the expression domain of the transgene
upregulation of β-galactosidase (hedgehog pathway) in tissues ([3]; 15 mg/kg/injection 4X/day plus dipal-Shh 1 mg/kg/injection 2X/day, four days from first day after birth, skull, kidney, lung, scapula, skin, heart): clearly capable of upregulating the hedgehog pathway in vivo
induction of Gli-1 relative to that obtained with the optimal concentration of Hh protein (Gli-1): approximately 60%

COc1ccc(CN(C(=O)c2sc3ccccc3c2Cl)C2CCC(N)CC2)cc1-c1cccc([N+](=O)[O-])c1 (centres unmarked) [A]
induction of Ptc-1 relative to that obtained with the optimal concentration of Hh protein (Ptc-1): ~40%
stimulation of 3H-thymidine incorporation [1]: significantly stimulate 3H-thymidine incorporation
induction of Gli-1 relative to that obtained with the optimal concentration of Hh protein (Gli-1): ~40%

CNC1CCC(N(Cc2ccc(-c3cccnc3)o2)C(=O)c2sc3ccccc3c2Cl)CC1 (centres unmarked) [R]
activation of Gli-Luc reporter in human cells [4]: activation of the reporter cell line

CNC1CCC(N(Cc2ccc(OC)c(-c3ccc(C#N)cc3)c2)C(=O)c2sc3ccccc3c2Cl)CC1 (centres unmarked) [D]
stimulation of 3H-thymidine incorporation [1]: strongly stimulated 3H-thymidine incorporation
upregulation of hedgehog pathway (β-galactosidase) in forelimbs ([3]; 0.1 mg/kg/injection 4X/day, four days): very weak upregulation
upregulation of hedgehog pathway (β-galactosidase) in forelimbs ([3]; 0.3 mg/kg/injection 4X/day, four days): greater than that seen with injections of Hh protein
upregulation of hedgehog pathway (β-galactosidase) in forelimbs ([3]; 0.9 mg/kg/injection 4X/day, four days, listed as agonist D): highest levels of upregulation; also recorded: greater than that seen with injections of Hh protein
upregulation of hedgehog pathway (β-galactosidase) in forelimbs ([3]; 4 mg/kg/injection 4X/day, three days, absence of dipal-Shh, listed as Agonist D): clearly capable of upregulating the hedgehog pathway in vivo
upregulation of hedgehog pathway (β-galactosidase) in forelimbs ([3]; 4 mg/kg/injection 4X/day, three days, absence of dipal-Shh, listed as agonist D): greater than that seen with injections of dipal-Shh
X-Gal staining of skin explants (ptc-lacZ skin punches): Analogous results
